According to patent US4120894A, “Sulfo-m-phenylenebis(sulfonylimino)diisophthalic acid salts” (American Cyanamid Company, priority 1977, dated 1978):
Structures can show the parent of a compound that is named as a salt.

Assays:
whole complement = test: Complement Level Reduction Test (serum of dosed guinea pigs, capillary tube assay); format: in vivo; settings: 200 mg/kg i.p.
shunt pathway = test: Test, Code 036 (C-Shunt inhibitor), lysis of human erythrocytes in autologous serum via shunt pathway activated by cobra venom factor; format: cell-based; settings: activity in wells, two-fold serial dilution assay; higher well number indicates higher activity
Text: (§1) An active inhibitor protects C2 C1 and C4; (ii) Test, Code 035 (C3-C9 inhibitor) -- This test determines the ability of thee late components of human complement (C3-C9) to lyse EAC 142 in the presence of appropriate dilutions of the test compound. An active inhibitor protects EAC 142 from lysis by human C3-C9; (iii) Test, Code 036 (C-Shunt inhibitor) -- In this test human erythrocytes rendered fragile are lysed in autologous serum via the shunt pathway activated by cobra venom factor in the present of appropriate dilutions of the test compound. Inhibition of the shunt pathway results in failure of lysis; (iv) Forssman Vasculitis Test -- Here, the well known complement dependent lesion, Forssman vasculitis, is produced in guinea pigs by intradermal injection of rabbit anti-Forssman antiserum. […]

activated human C1 = test: Test, Code 026 (C1 inhibitor); format: biochemical; settings: activity in wells, two-fold serial dilution assay; higher well number indicates higher activity
Text: as §1

[1] = tested on: hereditary angioneurotic edema; settings: literature report; cited from earlier work
complement system = settings: literature report; cited from earlier work
human serum complement = settings: in vitro and in vivo, judged by reduction in total hemolytic complement activity; cited from earlier work

Molecule | treatment of hereditary angioneurotic edema [1] | anticomplementary effect / complement inhibition (complement system) | other results
O=C(O)c1cc(NS(=O)(=O)c2cc(S(=O)(=O)O)cc(S(=O)(=O)Nc3cc(C(=O)O)cc(C(=O)O)c3)c2)cc(C(=O)O)c1 [5,5'[5-Sulfo-m-phenylenebis(sulfonylimino)]diisophathalic acid sodium salt, compound with ethanol (1:1)] | – | – | In Vivo Activity (Guinea Pig) % Inhibition, Intraperitoneal, 30 minutes (whole complement; 30 min): -44%; In Vivo Activity (Guinea Pig) % Inhibition, Intraperitoneal, 60 minutes (whole complement; 60 min): -42%; In Vivo Activity (Guinea Pig) % Inhibition, Intraperitoneal, 120 minutes (whole complement; 120 min): -49%; Shunt Inhibition 036 Wells (shunt pathway): +1 Wells; C1 026 Wells (activated human C1): +4 Wells
Cc1ccc(C(=O)Nc2ccc(S(=O)(=O)O)c3cc(S(=O)(=O)O)cc(S(=O)(=O)O)c23)cc1NC(=O)c1cccc(NC(=O)Nc2cccc(C(=O)Nc3cc(C(=O)Nc4ccc(S(=O)(=O)O)c5cc(S(=O)(=O)O)cc(S(=O)(=O)O)c45)ccc3C)c2)c1 [Suramin] | used with success | competitive inhibitor of the complement system | –
Nc1ccc2cc(S(=O)(=O)O)cc(O)c2c1N=Nc1ccc(NC(=O)Nc2ccc(N=Nc3c(N)ccc4cc(S(=O)(=O)O)cc(O)c34)c(S(=O)(=O)O)c2)cc1S(=O)(=O)O [chlorazol fast pink, 3,3'-ureylenebis-[6-(2-amino-8-hydroxy-6-sulfo-1-naphthylazo)]benzenesulfonic acid, tetrasodium salt] | – | anticomplementary effect | –
NCCCCCC(=O)O [epsilon-aminocaproic acid] | used with success | – | –
NC[C@H]1CC[C@H](C(=O)O)CC1 [tranexamic acid] | used with success | – | –
heparin | – | anticomplementary effect | –
pentosan-poly-sulfoester | – | – | anticomplementary activity on human serum (human serum complement): anticomplementary activity on human serum both in vitro and in vivo
